Consider ten compounds from PubChem BioAssay (NCI).

What all share (experiment): NCI anticancer screen, dose series, 48 h
The test system of assay [1] is K-562 leukemia.
Assay [2] concerns HL-60(TB) leukemia.
In assay [3] the test system is HCC-2998 colon.
In assay [4] the test system is SF-295 CNS.
For assay [5], the system named is 786-0 renal.
Assay [6] relates to NCI-H460 lung.
Assay [7] has as its system SN12C renal.
Assay [8] concerns NCI-H23 lung.
Assay [9] concerns SF-539 CNS.
Assay [10] concerns OVCAR-3 ovarian.

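Cultured in 96-well plates, cells were exposed to test compound for 48 hours across five concentrations. Abbreviation: GI50, concentration required for 50% inhibition of growth. At the TGI there is no net growth.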

In the case of `CCOc1ccccc1NC(=O)C1=C(C)NC(C)=C(C(=O)Nc2ccccc2OCC)C1c1cccc([N+](=O)[O-])c1`, the TGI in assay [1], in [2], in assay [3], in assay [4], in assay [5] and in assay [6] was above 100 µM throughout. Further, the TGI in assay [7], in [8], in [9] and in [10] was above 100 µM each time.
Take `COC(=O)C(C)Oc1ccc(O)cc1` (centres undefined): the TGI in assay [1], in assay [2], in [3], in assay [4], in assay [5] and in assay [6] was above 100 µM each time. Further, the TGI in [7], in assay [8], in assay [9] and in assay [10] was above 100 µM throughout.
In the case of `N=C1C=C(N)C(=O)c2ccccc21`, the GI50 is 0.231 µM in [1]; 0.207 µM in assay [2]; 1.39 µM in [3]; 0.639 µM in [4]; 0.202 µM in assay [5]; 1.81 µM in [6]. Further, the GI50 was 0.188 µM in assay [7], 0.219 µM in [8], 0.181 µM in assay [9] and 0.139 µM in [10]. The TGI in assay [1] stood at 0.556 µM; in [2] it was 0.606 µM; in assay [3], 2.76 µM; in [4], 1.53 µM; in assay [5], 0.406 µM; in [6] it was 4.01 µM. The TGI in [7] was determined as 0.376 µM; in assay [8] it was 0.61 µM; in [9], 0.347 µM; in assay [10], 0.281 µM.
Turning to `CCOC(=O)N(O)c1ccc(/C=C/c2ccccc2)cc1`, the GI50 in assay [1] is 5.88 µM; in assay [2], 8.59 µM; in assay [3] it was 7.03 µM; in assay [4], 2.45 µM; in assay [5] it was 10.9 µM; in assay [6], 0.913 µM. Also, the GI50 in assay [7] was 14.7 µM; in [8], 5.77 µM; in assay [9] it was 17.1 µM; in assay [10], 3.16 µM. The TGI in [1] is above 100 µM; in assay [2] it was 40.5 µM; in assay [3] it was 21.3 µM; in assay [4] it was 22.1 µM; in assay [5], above 51.1 µM; in assay [6], 15.6 µM. In addition, the TGI is above 100 µM in assay [7], 37.1 µM in assay [8], 40.1 µM in assay [9] and 15.7 µM in [10].
Consider `C=C1C(=O)OC2(C)CCC1CC1OC1(C)CCC=C(C)CCC2O` (centres undefined), for which the TGI in [1], in [2], in assay [3], in [4], in assay [5] and in assay [6] was above 100 µM in each case. Further, the TGI in assay [7], in assay [8], in assay [9] and in assay [10] was above 100 µM throughout.
For the compound `CN(C)CCOc1ccc2c(c1)C(=O)/C(=C\c1ncc([N+](=O)[O-])n1C)C2`, the GI50 in assay [1] was 0.295 µM; in assay [2], 0.235 µM; in assay [3], 0.507 µM; in [4] it was 0.46 µM; in assay [5] it was 0.857 µM; in assay [6] it was 0.217 µM. For the same compound, the GI50 in assay [7] was 1.12 µM; in [8] it was 0.258 µM; in assay [9], 1.4 µM; in [10], 0.359 µM. Also, the TGI in [2] is 1.09 µM; in assay [3], 1.75 µM; in [4], 1.47 µM; in assay [5] it was 3.39 µM; in assay [6], 0.808 µM; in assay [7], 5.21 µM. Also, the TGI was 1.3 µM in assay [8], 3.35 µM in assay [9] and 1.26 µM in assay [10].
In the case of `COC(=N)CCCl`, the TGI in assay [1], in [2], in [3], in assay [4], in [5] and in assay [6] was above 100 µM in each case. In addition, the TGI in [7], in [8], in assay [9] and in assay [10] was above 100 µM throughout.
On to `COc1ccc2c(c1)[nH]c1c3ccc(OC)cc3oc(=O)c21`, for which the TGI in [1], in assay [2], in assay [3], in assay [4], in assay [5] and in [6] was above 100 µM in each case. Moreover, the TGI in assay [7], in [8], in assay [9] and in assay [10] was above 100 µM throughout.
Consider `O=C1C=CC(=O)c2c(O)c(N(CCCl)CCCl)c(Cl)c(O)c21`, for which the TGI in assay [1] is above 10 µM; in assay [2] it was above 10 µM; in assay [3], above 10 µM; in assay [4], above 10 µM; in assay [5], above 7.67 µM; in [6], above 10 µM. For the same compound, the TGI was above 7.71 µM in assay [7], above 8.05 µM in assay [8], above 7.9 µM in [9] and 7.25 µM in [10].
`CN1C/C(=C\c2ccc(C(=O)O)cc2)C(=O)/C(=C/c2ccc(C(=O)O)cc2)C1`: the TGI in [1], in assay [2], in assay [3], in [4], in assay [5] and in assay [6] was above 100 µM throughout. Further, the TGI in [7], in assay [8], in assay [9] and in assay [10] was above 100 µM throughout.
